#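 Grown in 96-well plates, cells were treated for 48 hours with each compound at five concentrations. Insufficient inhibition: endpoint recorded as highest concentration tested. The concentration for 50% growth inhibition is given as GI50. TGI denotes the concentration required for complete inhibition of growth.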
# Experiments:
# Test in all cases: DTP human tumour cell line panel, 48 h
# [1] = system: HT29 colon
# [2] = system: MDA-MB-435
# [3] = system: NCI-H460 lung
# [4] = system: SK-MEL-5 melanoma
# [5] = system: MDA-MB-231 breast
# [6] = system: MDA-MB-468 breast
# [7] = system: OVCAR-8 ovarian
# [8] = system: EKVX NSCLC
# [9] = system: HCT-116 colon
# [10] = system: HCC-2998 colon
# [11] = system: LOX IMVI melanoma
# [12] = system: OVCAR-4 ovarian
# [13] = system: MOLT-4 leukemia
# [14] = system: OVCAR-3 ovarian
# [15] = system: ACHN renal
# [16] = system: SK-MEL-2 melanoma
# [17] = system: SN12C renal
# [18] = system: SF-539 CNS
# [19] = system: BT-549 breast
# [20] = system: UO-31 renal
# [21] = system: DU-145 prostate
# [22] = system: SNB-75 CNS
# [23] = system: HOP-62 NSCLC
# [24] = system: RPMI-8226 leukemia
# [25] = system: T-47D breast
# [26] = system: CCRF-CEM leukemia
# [27] = system: A549 NSCLC
# [28] = system: KM12 colon
# [29] = system: SNB-19 CNS
# [30] = system: UACC-62 melanoma
# [31] = system: SR leukemia
# [32] = system: SK-OV-3 ovarian
# [33] = system: HL-60(TB) leukemia
# [34] = system: K-562 leukemia
# [35] = system: TK-10 renal
# [36] = system: SK-MEL-28 melanoma
# [37] = system: HCT-15 colon
# [38] = system: OVCAR-5 ovarian
# [39] = system: NCI/ADR-RES ovarian
# [40] = system: HS 578T breast
# [41] = system: MALME-3M melanoma
# [42] = system: SF-295 CNS
# [43] = system: HOP-92 NSCLC
# [44] = system: U251 CNS
# [45] = system: RXF 393 renal
# [46] = system: 786-0 renal
# [47] = system: MCF7 breast
# [48] = system: UACC-257 melanoma
# [49] = system: PC-3 prostate
# [50] = system: NCI-H23 lung
# [51] = system: SW-620 colon
# [52] = system: CAKI-1 renal
# [53] = system: COLO 205 colon
# [54] = system: M14 melanoma
# [55] = system: SF-268 CNS
# [56] = system: A498 renal
# [57] = system: NCI-H226 lung
# [58] = system: IGROV1 ovarian
# [59] = system: NCI-H522 lung
smiles,measurement,setting,value
CC(=O)Nc1nc(-c2ccc(N3CCN(C)CC3)c(NS(=O)(=O)c3ccc(C(F)(F)F)cc3)c2)cs1,GI50,[1],4.77 µM
same,TGI,[1],16 µM
same,GI50,[2],4.08 µM
same,TGI,[2],12.6 µM
same,GI50,[3],6.77 µM
same,TGI,[3],14.8 µM
same,GI50,[4],6 µM
same,TGI,[4],12.5 µM
same,GI50,[5],5.78 µM
same,TGI,[5],12.4 µM
same,GI50,[6],2.04 µM
same,TGI,[6],7.95 µM
same,GI50,[7],8.2 µM
same,TGI,[7],23.9 µM
same,GI50,[8],7.41 µM
same,TGI,[8],14.5 µM
same,GI50,[9],3.01 µM
same,TGI,[9],11.9 µM
same,GI50,[10],7.51 µM
same,TGI,[10],14.5 µM
same,GI50,[11],2.46 µM
same,TGI,[11],8.87 µM
same,GI50,[12],6.72 µM
same,TGI,[12],14.6 µM
same,GI50,[13],5.34 µM
same,TGI,[13],23.6 µM
same,GI50,[14],3.06 µM
same,TGI,[14],10.6 µM
same,GI50,[15],4.67 µM
same,TGI,[15],11.1 µM
same,GI50,[16],7.27 µM
same,TGI,[16],14.4 µM
same,GI50,[17],6.19 µM
same,TGI,[17],12.7 µM
same,GI50,[18],4.12 µM
same,TGI,[18],10.8 µM
same,GI50,[19],5.83 µM
same,TGI,[19],12.8 µM
same,GI50,[20],6.13 µM
same,TGI,[20],12.6 µM
same,GI50,[21],6.51 µM
same,TGI,[21],14.5 µM
same,GI50,[22],2.44 µM
same,TGI,[22],9.48 µM
same,GI50,[23],9.06 µM
same,TGI,[23],17.2 µM
same,GI50,[24],2.16 µM
same,TGI,[24],53 µM
same,GI50,[25],4.71 µM
same,TGI,[25],13.2 µM
same,GI50,[26],1.97 µM
same,TGI,[26],9.86 µM
same,GI50,[27],7.24 µM
same,TGI,[27],16.3 µM
same,GI50,[28],7.55 µM
same,TGI,[28],16.4 µM
same,GI50,[29],7.82 µM
same,TGI,[29],14.8 µM
same,GI50,[30],6.08 µM
same,TGI,[30],12.6 µM
same,GI50,[31],1.98 µM
same,TGI,[31],37.6 µM
same,GI50,[32],10 µM
same,TGI,[32],19.6 µM
same,GI50,[33],3.35 µM
same,TGI,[33],19.1 µM
same,GI50,[34],5.47 µM
same,TGI,[34],53 µM
same,GI50,[35],7.04 µM
same,TGI,[35],14 µM
same,GI50,[36],7.72 µM
same,TGI,[36],14.7 µM
same,GI50,[37],3.18 µM
same,TGI,[37],10.8 µM
same,GI50,[38],7.63 µM
same,TGI,[38],14.7 µM
same,GI50,[39],6.97 µM
same,TGI,[39],21.6 µM
same,GI50,[40],5.77 µM
same,TGI,[40],20.2 µM
same,GI50,[41],6.73 µM
same,TGI,[41],13.5 µM
same,GI50,[42],6.51 µM
same,TGI,[42],13.4 µM
same,GI50,[43],5.34 µM
same,TGI,[43],14.1 µM
same,GI50,[44],7.52 µM
same,TGI,[44],15 µM
same,GI50,[45],2.61 µM
same,TGI,[45],9.24 µM
same,GI50,[46],5.18 µM
same,TGI,[46],12.6 µM
same,GI50,[47],2.58 µM
same,TGI,[47],10.6 µM
same,GI50,[48],6.76 µM
same,TGI,[48],14 µM
same,GI50,[49],6.33 µM
same,TGI,[49],17.2 µM
same,GI50,[50],8.11 µM
same,TGI,[50],15.8 µM
same,GI50,[51],3.21 µM
same,TGI,[51],11.3 µM
same,GI50,[52],3.91 µM
same,TGI,[52],11 µM
same,GI50,[53],7.95 µM
same,TGI,[53],18.7 µM
same,GI50,[54],7.25 µM
same,TGI,[54],17.1 µM
same,GI50,[55],6.99 µM
same,TGI,[55],16.4 µM
same,GI50,[56],6.64 µM
same,TGI,[56],13.5 µM
same,GI50,[57],8.25 µM
same,TGI,[57],19.1 µM
same,GI50,[58],6.41 µM
same,TGI,[58],13 µM
same,GI50,[59],3.62 µM
same,TGI,[59],10.8 µM

# From PubChem BioAssay (NCI)
